Experimental data taken from US11458079B2, “Sunscreen cosmetic” (JO COSMETICS CO., LTD., priority 2019, dated 2022).
Entries after “also recorded” stand apart in the source; their conditions may differ.

Assay: Dissolution in the aqueous phase (C phase) of the O/W cosmetic composition
Type: physicochemical
Details: 5.00 mass % in C phase (aqueous phase) of O/W formulation of Comparative Example 4
Text: (4) The gel emulsion was mixed with the components of C phase (aqueous phase), thereby preparing an O/W cosmetic composition. […] Hydrophobized fine particle titanium oxide” alone, the sunscreen cosmetic of Comparative Example 3 simultaneously containing “9. Trans-resveratrol aglycone,” which was not a polysaccharide, and “7. […] Since it is generally difficult to apply the formulation that could not be produced in such a small lot experiment to mass production, the production of emulsified cosmetic compositions for use in sunscreen containing trans-resveratrol monosaccharide glycoside turned out to be impractical.

With OC[C@H]1O[C@@H](Oc2cc(O)cc(/C=C/c3ccc(O)cc3)c2)[C@H](O)[C@@H](O)[C@@H]1O [piceid, Piceid] the “Solubility in the aqueous phase / water solubility” value was “could not be dissolved; also recorded: insufficient” and the “Solubility in the aqueous phase / water solubility” value (listed as resveratrol monosaccharide glycoside) was “could not be dissolved uniformly”.
